Entries after “also recorded” stand apart in the source; their conditions may differ. One block for each compound: values may come before it.
What was measured:
[1] = cited from earlier work
CAII [2] = biological target: T1, CAII (Homo sapiens, UniProt P00918); test: CAII esterase inhibition assay with 4-nitrophenyl acetate (pNPA) as colorimetric substrate; conditions: at physiologically relevant concentrations
mouse hearts = test: Oxygen consumption by Langendorff-perfused mouse hearts; conditions: 1 mM inhibitor, ex vivo Langendorff perfusion, C57BL6 mouse hearts, O2 in minus O2 out vs control solution
Method: To test the effects of carbonic anhydrase inhibitors on oxygen consumption, Langendorff perfusion experiments were conducted using mouse hearts. Hearts were isolated from ˜12-week-old C57BL6 male mice and perfused ex vivo in Langendorff mode (retrograde perfusion via the aorta) with perfusate containing Krebs-Henseleit electrolytes with 2 mM acetate. The perfusate was constantly oxygenated with an oxygenator. […] The inhibitor solution was oxygenated by bubbling with 95% O2/5% CO2 mixed gas prior to adding.
Dissolved oxygen concentration was measured in the perfusate, or in the carbonic anhydrase inhibitor solution, using an Oxygraph+ system. […] In each figure, “O2 in” refers to the oxygen concentration in the perfusate prior to entering the heart or in the carbonic anhydrase inhibitor solution, and “O2 out” refers to the oxygen concentration in the perfusate after it passes through the heart.
Oxygen consumption was measured as the difference between the O2 in measurements and the O2 out measurements, and results are shown in FIG. 32.

CAII [3] = biological target: T1, CAII; conditions: CAII binding; cited from earlier work

SMILES: CC(=O)Oc1ccccc1C(=O)O [Aspirin, Acetylsalicylic acid]
half-life in blood [1]: ~15 min

inhibition of CAII (CAII [2]): completely inhibited CAII
SMILES: O=C(O)c1ccccc1O [SA, salicylic acid]

SMILES: CC(=O)Nc1nnc(S(N)(=O)=O)s1 [acetazolamide]
oxygen consumption by the heart (mouse hearts): increase in oxygen consumption; also recorded: increased oxygen consumption

SMILES: [Cu] [copper]
specificity toward copper over zinc (CAII [3]): 50 fold

SMILES: CCN[C@H]1C[C@H](C)S(=O)(=O)c2sc(S(N)(=O)=O)cc21 [dorzolamide]
oxygen consumption by the heart (mouse hearts): increase in oxygen consumption; also recorded: increased oxygen consumption

Source: patent publication US20230081321A1, “CARBONIC ANHYDRASE II COMPOSITIONS AND METHODS OF USE THEREOF” (University of Florida Research Foundation, Incorporated, priority 2020, published 2023)
